Measured values reported in US20090018131A1, “QUINAZOLINE DERIVATIVES AS P13 KINASE INHIBITORS” (priority 2007, published 2009).

What follows are compounds tested against T1, PI3Kα (Homo sapiens, UniProt P42336) (assay: PI3K Alpha Leadseeker SPA Assay). Conditions: in at least one experimental run; read-out: IC50 value against PI3Kα.
T1 construct: His
T1 sequence (P42336 whole entry, species assumed): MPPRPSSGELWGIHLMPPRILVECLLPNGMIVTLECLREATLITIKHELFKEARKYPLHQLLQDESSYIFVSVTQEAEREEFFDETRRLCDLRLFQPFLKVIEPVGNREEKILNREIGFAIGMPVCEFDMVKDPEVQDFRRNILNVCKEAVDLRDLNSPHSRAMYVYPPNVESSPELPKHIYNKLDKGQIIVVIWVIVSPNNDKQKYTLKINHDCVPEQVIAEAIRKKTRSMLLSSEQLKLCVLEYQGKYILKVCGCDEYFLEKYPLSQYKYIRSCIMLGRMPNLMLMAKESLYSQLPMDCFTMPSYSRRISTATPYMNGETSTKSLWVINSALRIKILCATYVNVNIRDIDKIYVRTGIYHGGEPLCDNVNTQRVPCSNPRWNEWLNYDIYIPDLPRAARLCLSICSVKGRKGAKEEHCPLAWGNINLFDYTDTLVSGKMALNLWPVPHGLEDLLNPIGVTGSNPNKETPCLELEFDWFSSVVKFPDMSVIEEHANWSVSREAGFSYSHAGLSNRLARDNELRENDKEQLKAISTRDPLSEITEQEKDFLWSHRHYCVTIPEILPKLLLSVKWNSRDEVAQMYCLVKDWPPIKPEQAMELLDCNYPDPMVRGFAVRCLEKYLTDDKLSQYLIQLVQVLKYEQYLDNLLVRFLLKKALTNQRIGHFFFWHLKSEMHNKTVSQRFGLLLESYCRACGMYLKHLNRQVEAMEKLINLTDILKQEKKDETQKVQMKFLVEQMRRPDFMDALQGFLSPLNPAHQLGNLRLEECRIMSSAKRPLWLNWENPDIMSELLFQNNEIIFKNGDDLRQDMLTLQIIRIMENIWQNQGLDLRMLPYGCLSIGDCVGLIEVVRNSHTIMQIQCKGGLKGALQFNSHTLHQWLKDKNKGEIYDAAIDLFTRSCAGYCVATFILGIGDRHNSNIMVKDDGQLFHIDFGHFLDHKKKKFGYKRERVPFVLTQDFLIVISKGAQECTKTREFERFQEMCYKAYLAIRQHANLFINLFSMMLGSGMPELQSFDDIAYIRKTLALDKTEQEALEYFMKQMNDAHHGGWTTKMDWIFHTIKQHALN
T1 sequence (P27986 whole entry partner, species assumed): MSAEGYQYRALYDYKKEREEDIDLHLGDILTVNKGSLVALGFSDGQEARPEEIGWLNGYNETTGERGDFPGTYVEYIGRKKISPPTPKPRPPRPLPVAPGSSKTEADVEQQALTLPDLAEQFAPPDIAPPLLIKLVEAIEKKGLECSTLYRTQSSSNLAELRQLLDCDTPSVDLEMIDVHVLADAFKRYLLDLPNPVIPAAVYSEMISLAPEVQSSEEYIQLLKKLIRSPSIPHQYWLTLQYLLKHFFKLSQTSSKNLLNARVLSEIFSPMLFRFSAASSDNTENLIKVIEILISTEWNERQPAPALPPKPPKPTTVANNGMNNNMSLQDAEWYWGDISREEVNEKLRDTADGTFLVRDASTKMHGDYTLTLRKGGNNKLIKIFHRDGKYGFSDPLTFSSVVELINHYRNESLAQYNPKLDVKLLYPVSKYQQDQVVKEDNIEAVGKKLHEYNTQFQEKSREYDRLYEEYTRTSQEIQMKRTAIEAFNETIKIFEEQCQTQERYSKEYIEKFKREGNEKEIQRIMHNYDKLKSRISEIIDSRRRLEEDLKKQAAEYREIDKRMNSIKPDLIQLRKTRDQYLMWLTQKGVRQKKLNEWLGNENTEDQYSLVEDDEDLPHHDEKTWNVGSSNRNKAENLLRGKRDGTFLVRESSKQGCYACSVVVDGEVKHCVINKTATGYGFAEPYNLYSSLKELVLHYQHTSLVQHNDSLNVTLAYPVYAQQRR
Type: biochemical
Method: Compounds of the present invention were tested according to the following assays and found as inhibitors of PI3 kinases, particularly PI3Kα. The exemplified compounds were tested and found active against PI3Kα. The IC50's ranged from about 1 nM to 10 μM.
SPA imaging beads are microspheres containing scintillant which emit light in the red region of the visible spectrum. As a result, these beads are ideally suited to use with a CCD imager such as the Viewlux. The Leadseeker beads used in this system are polystyrene beads that have been coupled with polyethyleneimine. When added to the assay mixture, the beads absorb both the substrate (PIP2) and product (PIP3). Adsorbed P^33—PIP3 will cause an increase in signal, measured as ADUs (analog to digital units). This protocol details the use of the PEI-PS Leadseeker beads for assays using His-p110/p85 PI3K alpha.
Solid compounds are typically plated with 0.1 μl of 100% DMSO in all wells (except column 6 and 18) of a 384-well, flat bottom, low volume plate (Greiner 784075). The compounds are serially diluted (3-fold in 100% DMSO) across the plate from column 1 to column 12 and column 13 to column 24 and leave column 6 and 18 containing only DMSO to yield 11 concentrations for each test compound.
The assay buffer contains MOPS (pH 6.5), CHAPS, and DTT. PI3K alpha and PIP2 (L-alpha-D-myo-Phosphatidylinositol 4,5-bisphosphate [PI(4,5)P2]3-O-phospho linked, D(+)-sn-1,2-di-O-octanoylglyceryl, CellSignals # 901) are mixed and incubated in the plate with compound for 30 min prior to starting the reaction with the addition of P^33-ATP and MgCl2 (reagents added using Zoom). Enzyme-free wells (column 18) are typically done to determine the low control. PEI-PS Leadseeker beads in PBS/EDTA/CHAPS are added (by Multidrop) to quench the reaction, and the plates are allowed to incubate for at least one hour (typically overnight) before centrifugation. The signal is determined using a Viewlux detector and is then imported into curve fitting software (Activity Base) for construction of concentration response curves. The percent inhibition of activity was calculated relative to high controls (C1, 0.1 μl DMSO in column 6, rows A-P)) and low controls (C2, 5 μl of 40 uM PIP2 in buffer in column 18, rows A-P) using, 100*(1-(U1-C2)/(C1-C2)). The concentration of test compound yielding 50% inhibition was determined using the equation, y=((Vmax*x)/(K+x))+Y2, where “K” was equal to the IC50. The IC50 values were converted to pIC50 values, i.e., −log IC50 in Molar concentration.
Work on `CN(C)S(=O)(=O)c1cc(-c2ccc3nc(NCCO)nc(-c4ccncc4)c3c2)cnc1N` [Example 1, 2-amino-5-[2-[(2-hydroxyethyl)amino]-4-(4-pyridinyl)-6-quinazolinyl]-N,N-dimethyl-3-pyridinesulfonamide] yielded an IC50 of 7.9 nM. With `OCc1cccc(Nc2nc(-c3ccncc3)c3cc(-c4cnc5[nH]ccc5c4)ccc3n2)c1` [Example 2, (3-{[4-(4-pyridinyl)-6-(1H-pyrrolo[2,3-b]pyridin-5-yl)-2-quinazolinyl]amino}phenyl)methanol] the IC50 was 100 nM. Compound `CC(=O)Nc1nc(-c2ccncc2)c2cc(-c3cnc(Cl)c(NS(=O)(=O)c4ccccc4)c3)ccc2n1` [Example 6, N-[6-{6-chloro-5-[(phenylsulfonyl)amino]-3-pyridinyl}-4-(4-pyridinyl)-2-quinazolinyl]acetamide] has an IC50 of 1.4 nM. With `c1nc(N2CCOCC2)c2cc(-c3cnc4[nH]ccc4c3)ccc2n1` [Example 15, 4-(4-morpholinyl)-6-(1H-pyrrolo[2,3-b]pyridin-5-yl)quinazoline] the IC50 was 50 nM. For `NS(=O)(=O)c1cncc(-c2ccc3ncnc(N4CCCCC4)c3c2)c1` [Example 16, 5-[4-(1-piperidinyl)-6-quinazolinyl]-3-pyridinesulfonamide], the IC50 was 40 nM. Work on `CCN1CCN(c2ncnc3ccc(-c4cncc(NS(=O)(=O)c5ccc(F)cc5F)c4)cc23)CC1=O` [Example 61, N-{5-[4-(4-ethyl-3-oxo-1-piperazinyl)-6-quinazolinyl]-3-pyridinyl}-2,4-difluorobenzenesulfonamide] yielded an IC50 of 1 nM. `COc1ccc(Nc2ncnc3ccc(-c4cncc(NS(=O)(=O)c5ccc(F)cc5F)c4)cc23)cc1Cl` [Example 73, N-[5-(4-{[3-chloro-4-(methyloxy)phenyl]amino}-6-quinazolinyl)-3-pyridinyl]-2,4-difluorobenzenesulfonamide] showed an IC50 of 2.5 nM.
